Laboratory results published in US4024277A, “Phosphoro-aminosulfenyl derivatives of benzofuran carbamates” (priority 1975, dated 1977).

Columns and labels:
[1] = system: beetles, true bugs, aphids and acarids; settings: U.S. Pat. No. 3,474,171; cited from earlier work
[2] = Mammalian toxicity, 14-day LD50 in rats; settings: rat, in vivo, Wistar derived albino rats, method of Miller and Tainter
From the text: The compounds of this invention are characterized by advantageous mammalian toxicity values when compared with values for related compounds. This is shown by comparative values obtained with Wistar derived albino rats in 14-day tests. The animals were fed, housed and watered in accordance with standard laboratory procedures. The 14-day LD50 determination was estimated in accord with the method of Miller and Tainter (Experimental Biology and Medicine, 57, pp. 261-264, 1944).

twospotted spider mite [3] = assay: Seven-day residual insecticidal activity, twospotted spider mite; assay type: in vivo, Tetranychus urticae Koch; settings: Tetranychus urticae, 48-hour exposure, read-out: % Kill, Twospotted Spider Mite
From the text: (§1) b. Seven-Day Residual Insecticidal Activity
(§2) In this test, a candidate insecticide, in solution, is applied to uninfested plants or containers by dipping or spraying. A seven-day holding period is necessary before infestation. A 48-hour exposure period is observed before evaluation of the tests. The insect species used in this type of test are the same as those listed under initial activity.

plum curculio [4] = assay: Initial insecticidal activity, plum curculio; assay type: in vivo, Conotrachelus nenuphar (Herbst); settings: Conotrachelus nenuphar, 48-hour exposure, read-out: % Kill, Plum Curculio
From the text: (§3) a. Initial Insecticidal Activity
(§4) In this test, a candidate insecticide, in solution, is applied to either infested or uninfested plants or containers by spraying or dipping. (The preferred test procedure varies with insect species. The dipping method is better than the spraying method, and vice versa, for certain species of insects. Also some species are better adapted to the test by infesting after the chemical treatment rather than before.) Once the tests have been established, a 48-hour exposure period is observed before reading the tests. Insect species included in these tests are Mexican bean beetle (Epilachna varivestis Mulsant), pea aphid [Acyrthosiphon pisum (Harris)], southern armyworm [Spodoptera eridania (Cramer)], twospotted spider mite (Tetranychus urticae Koch), large milkweed bug [Oncopeltus fasciatus (Dallas)], plum curculio [Conotrachelus nenuphar (Herbst)], confused flour beetle (Tribolium confusum Jacquelin duVal) and granary weevil [Sitophilus granarius (Linnaeus)]. Test results are set forth in Table I. A control sample, comprising the solution without the candidate insecticide, is also included.

pea aphid [5] = assay: Systemic insecticidal activity (soil/water), pea aphid; assay type: in vivo, Acyrthosiphon pisum (Harris); settings: Acyrthosiphon pisum, 48-hour exposure, read-out: % Kill, Pea Aphid
Procedure: (§5) c. Systemic Insecticidal Acitivity (Soil/Water)
(§6) In this test, a candidate insecticide, in solution, is added to the soil of either uninfested pinto bean seedlings (Phaseolus vulgaris) or uninfested broad bean seedlings (Vicia faba var. Windsor). The plant species used depend on the insect species in the test. Usually, a 72-hour translocation period before infestation is required, followed by a 48-hour exposure period, before evaluation of the tests. The insect species used in the systemic tests are Mexican bean beetle, southern armyworm, pea aphid, and twospotted spider mite.

plum curculio [6] = assay: Seven-day residual insecticidal activity, plum curculio; assay type: in vivo, Conotrachelus nenuphar (Herbst); settings: Conotrachelus nenuphar, 48-hour exposure, read-out: % Kill, Plum Curculio
From the text: as §1, §2

large milkweed bug [7] = assay: Initial insecticidal activity, milkweed bug; assay type: in vivo, Oncopeltus fasciatus (Dallas); settings: Oncopeltus fasciatus, 48-hour exposure, read-out: % Kill, Milkweed Bug
From the text: as §3, §4

Mexican bean beetle [8] = assay: Initial insecticidal activity, Mexican bean beetle; assay type: in vivo, Epilachna varivestis Mulsant; settings: Epilachna varivestis, 48-hour exposure, read-out: % Kill, Mexican Bean Beetle
From the text: as §3, §4

southern armyworm [9] = assay: Systemic insecticidal activity (soil/water), southern armyworm; assay type: in vivo, Spodoptera eridania (Cramer); settings: Spodoptera eridania, 48-hour exposure, read-out: % Kill, Southern Armyworm
Procedure: as §5, §6

large milkweed bug [10] = assay: Seven-day residual insecticidal activity, milkweed bug; assay type: in vivo, Oncopeltus fasciatus (Dallas); settings: Oncopeltus fasciatus, 48-hour exposure, read-out: % Kill, Milkweed Bug
From the text: as §1, §2

twospotted spider mite [11] = assay: Initial insecticidal activity, twospotted spider mite; assay type: in vivo, Tetranychus urticae Koch; settings: Tetranychus urticae, 48-hour exposure, read-out: % Kill, Twospotted Spider Mite
From the text: as §3, §4

pea aphid [12] = assay: Initial insecticidal activity, pea aphid; assay type: in vivo, Acyrthosiphon pisum (Harris); settings: Acyrthosiphon pisum, 48-hour exposure, read-out: % Kill, Pea Aphid
From the text: as §3, §4

twospotted spider mite [13] = assay: Ovicidal activity against the twospotted spider mite; assay type: in vivo, Tetranychus urticae Koch; settings: Tetranychus urticae, eggs, 7 to 10 days, read-out: % Kill (ovicidal)
Procedure: d. Ovicidal Activity Against the Twospotted Spider Mite
In this test, Pinto bean seedlings are infested with female twospotted spider mites; about 3-4 hours are allowed for egg deposition. Plants are then dipped in TEPP (tetraethylpyrophosphate-commercial emulsifiable concentrate (EC)) solution containing 936 ppm of active ingredient. TEPP kills motile forms on the leaf and promptly degrades without effecting the egg stage. Two to three hours after TEPP treatment the plants are again dipped -- this time into a candidate insecticide solution. The test plants are maintained for 7 to 10 days. Termination of exposure is determined by the time required to attain complete hatch in the untreated check.

southern armyworm [14] = assay: Seven-day residual insecticidal activity, southern armyworm; assay type: in vivo, Spodoptera eridania (Cramer); settings: Spodoptera eridania, 48-hour exposure, read-out: % Kill, Southern Armyworm
From the text: as §1, §2

pea aphid [15] = assay: Seven-day residual insecticidal activity, pea aphid; assay type: in vivo, Acyrthosiphon pisum (Harris); settings: Acyrthosiphon pisum, 48-hour exposure, read-out: % Kill, Pea Aphid
From the text: as §1, §2

Mexican bean beetle [16] = assay: Seven-day residual insecticidal activity, Mexican bean beetle; assay type: in vivo, Epilachna varivestis Mulsant; settings: Epilachna varivestis, 48-hour exposure, read-out: % Kill, Mexican Bean Beetle
From the text: as §1, §2

Mexican bean beetle [17] = assay: Systemic insecticidal activity (soil/water), Mexican bean beetle; assay type: in vivo, Epilachna varivestis Mulsant; settings: Epilachna varivestis, 48-hour exposure, read-out: % Kill, Mexican Bean Beetle
Procedure: as §5, §6

southern armyworm [18] = assay: Initial insecticidal activity, southern armyworm; assay type: in vivo, Spodoptera eridania (Cramer); settings: Spodoptera eridania, 48-hour exposure, read-out: % Kill, Southern Armyworm
From the text: as §3, §4

confused flour beetle [19] = assay: Seven-day residual insecticidal activity, confused flour beetle; assay type: in vivo, Tribolium confusum Jacquelin duVal; settings: Tribolium confusum, 48-hour exposure, read-out: % Kill, Confused Flour Beetle
From the text: as §1, §2

confused flour beetle [20] = assay: Initial insecticidal activity, confused flour beetle; assay type: in vivo, Tribolium confusum Jacquelin duVal; settings: Tribolium confusum, 48-hour exposure, read-out: % Kill, Confused Flour Beetle
From the text: as §3, §4

twospotted spider mite [21] = assay: Systemic insecticidal activity (soil/water), twospotted spider mite; assay type: in vivo, Tetranychus urticae Koch; settings: Tetranychus urticae, 48-hour exposure, read-out: % Kill, Twospotted Spider Mite
Procedure: as §5, §6

## CNC(=O)Oc1cccc2c1OC(C)(C)C2 [carbofuran, 2,3-dihydro-2,2-dimethyl-7-benzofuranyl methyl-carbamate, reference compound]
[1]
  control of beetles, true bugs, aphids and acarids: effective in control of beetles, true bugs, aphids and acarids
[2]
  LD50 at 336 h: 12.2 mg/kg

## CCCN(SN(C)C(=O)Oc1cccc2c1OC(C)(C)C2)P(=O)(OCC)OCC [4(c), 2,3-dihydro-2,2-dimethyl-7-benzofuranyl [(N-diethoxyphosphinyl) (N-n-propyl)aminosulfenyl][methyl]carbamate]
Twospotted spider mite [3]; 39 ppm
  mortality at 39 ppm: 0%
Twospotted spider mite [3]
  mortality at 156 ppm: 0%
  mortality at 1250 ppm: 2%
Plum curculio [4]
  mortality at 39 ppm: 0%
  mortality at 156 ppm: 50%
  mortality at 1250 ppm: 10%
Pea aphid [5]
  mortality at 10 ppm: 0%
  mortality at 39 ppm: 93%
  mortality at 156 ppm: 100%
Plum curculio [6]
  mortality at 39 ppm: 0%
  mortality at 156 ppm: 0%
  mortality at 1250 ppm: 19%
Large milkweed bug [7]
  mortality at 39 ppm: 90%
  mortality at 156 ppm: 100%
  mortality at 1250 ppm: 100%
Mexican bean beetle [8]
  mortality at 39 ppm: 86%
  mortality at 156 ppm: 100%
  mortality at 1250 ppm: 95%
Southern armyworm [9]; 10 ppm
  mortality at 10 ppm: 0%
Southern armyworm [9]
  mortality at 39 ppm: 0%
  mortality at 156 ppm: 42%
Large milkweed bug [10]
  mortality at 39 ppm: 75%
  mortality at 156 ppm: 95%
  mortality at 1250 ppm: 100%
Twospotted spider mite [11]
  mortality at 39 ppm: 8%
  mortality at 156 ppm: 37%
  mortality at 1250 ppm: 100%
Pea aphid [12]
  mortality at 39 ppm: 33%
  mortality at 156 ppm: 100%
  mortality at 1250 ppm: 100%
Twospotted spider mite [13]
  mortality at 156 ppm: 0%
  mortality at 1250 ppm: 66%
Southern armyworm [14]; 39 ppm
  mortality at 39 ppm: 0%
Southern armyworm [14]
  mortality at 156 ppm: 5%
  mortality at 1250 ppm: 60%
Pea aphid [15]
  mortality at 39 ppm: 0%
  mortality at 156 ppm: 0%
  mortality at 1250 ppm: 100%
Mexican bean beetle [16]
  mortality at 39 ppm: 27%
  mortality at 156 ppm: 62%
  mortality at 1250 ppm: 100%
Mexican bean beetle [17]
  mortality at 10 ppm: 7%
  mortality at 39 ppm: 65%
  mortality at 156 ppm: 94%
Southern armyworm [18]
  mortality at 39 ppm: 0%
  mortality at 156 ppm: 29%
  mortality at 1250 ppm: 100%
Confused flour beetle [19]
  mortality at 39 ppm: 0%
  mortality at 156 ppm: 0%
  mortality at 1250 ppm: 0%
Confused flour beetle [20]
  mortality at 39 ppm: 0%
  mortality at 156 ppm: 8%
  mortality at 1250 ppm: 65%
Twospotted spider mite [21]; 10 ppm
  mortality at 10 ppm: 0%
Twospotted spider mite [21]
  mortality at 39 ppm: 0%
  mortality at 156 ppm: 7%

## CCOP(=O)(OCC)N(CCc1ccccc1)SN(C)C(=O)Oc1cccc2c1OC(C)(C)C2 [9(c), 2,3-Dihydro-2,2-dimethyl-7-benzofuranyl [(N-diethoxyphosphinyl)(N-2-phenylethyl)aminosulfenyl][methyl-carbamate]]
Twospotted spider mite [3]
  mortality at 156 ppm: 0%
  mortality at 1250 ppm: 0%
Plum curculio [4]
  mortality at 39 ppm: 0%
  mortality at 156 ppm: 5%
  mortality at 1250 ppm: 94%
Pea aphid [5]; 5 ppm
  mortality at 5 ppm: 0%
Pea aphid [5]
  mortality at 10 ppm: 0%
  mortality at 39 ppm: 0%
  mortality at 156 ppm: 100%
Plum curculio [6]
  mortality at 39 ppm: 0%
  mortality at 156 ppm: 0%
  mortality at 1250 ppm: 0%
Large milkweed bug [7]
  mortality at 39 ppm: 6%
  mortality at 156 ppm: 100%
  mortality at 1250 ppm: 100%
Mexican bean beetle [8]
  mortality at 39 ppm: 60%
  mortality at 156 ppm: 100%
  mortality at 1250 ppm: 100%
Southern armyworm [9]
  mortality at 39 ppm: 0%
  mortality at 156 ppm: 21%
Southern armyworm [9]; 312 ppm
  mortality at 312 ppm: 80%
Large milkweed bug [10]
  mortality at 39 ppm: 0%
  mortality at 156 ppm: 85%
  mortality at 1250 ppm: 100%
Twospotted spider mite [11]
  mortality at 39 ppm: 3%
  mortality at 156 ppm: 6%
  mortality at 1250 ppm: 98%
Pea aphid [12]
  mortality at 39 ppm: 0%
  mortality at 156 ppm: 0%
  mortality at 1250 ppm: 100%
Twospotted spider mite [13]
  mortality at 156 ppm: 0%
  mortality at 1250 ppm: 94%
Southern armyworm [14]
  mortality at 156 ppm: 0%
  mortality at 1250 ppm: 25%
Pea aphid [15]
  mortality at 39 ppm: 6%
  mortality at 156 ppm: 0%
  mortality at 1250 ppm: 0%
Mexican bean beetle [16]
  mortality at 39 ppm: 8%
  mortality at 156 ppm: 100%
  mortality at 1250 ppm: 100%
Mexican bean beetle [17]; 5 ppm
  mortality at 5 ppm: 0%
Mexican bean beetle [17]
  mortality at 10 ppm: 0%
  mortality at 39 ppm: 0%
  mortality at 156 ppm: 65%
Southern armyworm [18]
  mortality at 39 ppm: 0%
  mortality at 156 ppm: 8%
  mortality at 1250 ppm: 79%
Confused flour beetle [19]
  mortality at 39 ppm: 0%
  mortality at 156 ppm: 0%
  mortality at 1250 ppm: 12%
Confused flour beetle [20]
  mortality at 39 ppm: 0%
  mortality at 156 ppm: 3%
  mortality at 1250 ppm: 8%
Twospotted spider mite [21]
  mortality at 39 ppm: 0%
  mortality at 156 ppm: 0%
Twospotted spider mite [21]; 312 ppm
  mortality at 312 ppm: 2%
